Consider 7 compounds from patent US9708314B2, “Heterocyclic amide compound” (NISSAN CHEMICAL INDUSTRIES, LTD., priority 2013, dated 2017).

Common to all, as to assay type: in vivo
The test system of one series is Monochoria vaginalis. Nature of the series: Test Example 2: herbicidal activity, application during weed generation in submerged conditions. The conditions noted are these: Eighteenth Table; application herbicide amount 320 g/ha. Summed up: (§1)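 Seeds were sown together in alluvial soil kept under 4 cm of water and grown at 25 °C to 30 °C. Once plants reached the one- to two-leaf stage, the diluted emulsion was applied to the water surface at a predetermined g/ha amount, and effects were rated 0–5 after three weeks.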

In the next series the test system is Scirpus juncoides. Described as above. To be noted: Eighteenth Table; application herbicide amount 320 g/ha. Summed up:
as §1

The test system of series [1] is directly sowed Oryza sativa. Nature of the series: Test Example 3: effect on crop by application to foliage (Wagner pot, water depth 0.1-0.5 cm). The conditions noted are these: Nineteenth Table; application to foliage; application herbicide amount 320 g/ha. Summed up:
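Greenhouse pot test, 25–30 °C, alluvial soil. Sown seedlings grown 14 days then sprayed on leaves and stems with emulsion diluted to target g/ha. Rating at 3 weeks, 0–5 scale (0 ≤5%, 5 ≥90%).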

For series [2], the system named is Beta vulgaris ssp. vulgaris. The series can be described thus: Test Example 4: effect on crop by application to foliage (diluvial soil, plastic box). The conditions noted are these: for f: effect on crop, Beta vulgaris ssp. vulgaris: application to foliage, application herbicide amount 320 g/ha. Summed up:
(§2)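 Greenhouse plants (25° C. to 30° C., 14 d, diluvial soil) receive a foliar spray of water-diluted emulsifiable formulation at defined g/ha. Grading after 3 weeks uses a six-step herbicidal-ratio scale, with 4 covering 70% to <90% and 1 covering 5% to <20%.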

A further series concerns Brassica campestris L. The series is described as above. To be noted: for g: effect on crop, Brassica campestris L.: application to foliage, application herbicide amount 320 g/ha. Summed up: as §2
Another series concerns Glycine max. The series is described as above. To be noted: for d: effect on crop, Glycine max: application to foliage, application herbicide amount 320 g/ha. Summed up: as §2
A further series deals with Triticum aestivum. The series is described as above. To be noted: for e: effect on crop, Triticum aestivum: application to foliage, application herbicide amount 320 g/ha. Summed up: as §2
The next series concerns Zea mays. The series is described as above. To be noted: for c: effect on crop, Zea mays: application to foliage, application herbicide amount 320 g/ha. Summed up: as §2
Series [3] concerns directly sowed Oryza sativa. The description is as above. To be noted: for b: effect on crop, directly sowed Oryza sativa: application to foliage, application herbicide amount 320 g/ha. The procedure, abridged: as §2
Setting [4] is: Application herbicide amount 320 g/ha, foliage application.

The structures appear in SMILES notation.

In the case of `Cn1nnnc1NC(=O)c1ccc(C(F)(F)F)n2c(Br)nnc12` [2-009], in the series with Monochoria vaginalis, the “C (Monochoria vaginalis) herbicidal ratio grade” value was 3 (Herbicidal ratio of 40% or more and less than 70%). In the series on Scirpus juncoides, the “B (Scirpus juncoides) herbicidal ratio grade” value was 2 (Herbicidal ratio of 20% or more and less than 40%). For the same compound, the “b (effect on crop grade)” value in series [1] was 4 (Herbicidal ratio of 70% or more and less than 90%). Moreover, the “f: effect on crop, Beta vulgaris ssp. vulgaris” value (“f: effect on crop” for short) in series [2] is listed as 5 (Herbicidal ratio of 90% or more (almost completely withered)). Moreover, in the series with Brassica campestris L., the “g: effect on crop, Brassica campestris L.” value (from here on “g: effect on crop”) is 4 (Herbicidal ratio of 70% or more and less than 90%). Besides, in the series with Glycine max, the “d: effect on crop, Glycine max” value is 4 (Herbicidal ratio of 70% or more and less than 90%). In addition, the “e: effect on crop, Triticum aestivum” value in the series with Triticum aestivum was 1 (Herbicidal ratio of 5% or more and less than 20%). In addition, in the series on Zea mays, the “c: effect on crop, Zea mays” value is 1 (Herbicidal ratio of 5% or more and less than 20%). Further, the “b: effect on crop, directly sowed Oryza sativa” value (shortened to “b: effect on crop”) in series [3] is 2 (Herbicidal ratio of 20% or more and less than 40%).

With `COCCOCc1nnc2c(C(=O)Nc3nnnn3C)ccc(C(F)(F)F)n12` [2-014], the “C (Monochoria vaginalis) herbicidal ratio grade” value in the series on Monochoria vaginalis is 5 (Herbicidal ratio of 90% or more (almost completely withered)). Also, the “B (Scirpus juncoides) herbicidal ratio grade” value in the series on Scirpus juncoides is given as 5 (Herbicidal ratio of 90% or more (almost completely withered)). Further, the “b (effect on crop grade)” value in [1] is reported as 5 (Herbicidal ratio of 90% or more (almost completely withered)). In addition, the “f: effect on crop” value in [2] was 5 (Herbicidal ratio of 90% or more (almost completely withered)). Further, in the series on Brassica campestris L., the “g: effect on crop” value was 4 (Herbicidal ratio of 70% or more and less than 90%). Moreover, the “d: effect on crop, Glycine max” value in the series with Glycine max is 4 (Herbicidal ratio of 70% or more and less than 90%). The “e: effect on crop, Triticum aestivum” value in the series on Triticum aestivum was 4 (Herbicidal ratio of 70% or more and less than 90%). Besides, in the series with Zea mays, the “c: effect on crop, Zea mays” value was 3 (Herbicidal ratio of 40% or more and less than 70%). Besides, the “b: effect on crop” value in [3] is on record as 5 (Herbicidal ratio of 90% or more (almost completely withered)).

Regarding `COc1ccc(-c2nnc3c(C(=O)Nc4nnnn4C)ccc(C(F)(F)F)n23)cc1` [2-011], in the series with Monochoria vaginalis, the “C (Monochoria vaginalis) herbicidal ratio grade” value was 4 (Herbicidal ratio of 70% or more and less than 90%). In addition, in the series on Scirpus juncoides, the “B (Scirpus juncoides) herbicidal ratio grade” value is 3 (Herbicidal ratio of 40% or more and less than 70%). Moreover, the “b (effect on crop grade)” value in [1] is on record as 5 (Herbicidal ratio of 90% or more (almost completely withered)). In series [2], the “f: effect on crop” value was 5 (Herbicidal ratio of 90% or more (almost completely withered)). Besides, the “g: effect on crop” value with Brassica campestris L. is 1 (Herbicidal ratio of 5% or more and less than 20%). For the same compound, the “d: effect on crop, Glycine max” value in the series with Glycine max was 4 (Herbicidal ratio of 70% or more and less than 90%). For the same compound, in the series with Triticum aestivum, the “e: effect on crop, Triticum aestivum” value is 1 (Herbicidal ratio of 5% or more and less than 20%). In the series with Zea mays, the “c: effect on crop, Zea mays” value was 1 (Herbicidal ratio of 5% or more and less than 20%). The “b: effect on crop” value in series [3] is 5 (Herbicidal ratio of 90% or more (almost completely withered)).

Take `CCSc1nnc2c(C(=O)Nc3nnnn3C)ccc(C(F)(F)F)n12` [2-024]: in the series on Monochoria vaginalis, the “C (Monochoria vaginalis) herbicidal ratio grade” value is 4 (Herbicidal ratio of 70% or more and less than 90%). In the series with Scirpus juncoides, the “B (Scirpus juncoides) herbicidal ratio grade” value was 4 (Herbicidal ratio of 70% or more and less than 90%). Moreover, in series [1], the “b (effect on crop grade)” value is reported as 5 (Herbicidal ratio of 90% or more (almost completely withered)). For the same compound, the “f: effect on crop” value in [2] is recorded as 5 (Herbicidal ratio of 90% or more (almost completely withered)). Further, the “g: effect on crop” value in the series on Brassica campestris L. is 5 (Herbicidal ratio of 90% or more (almost completely withered)). Also, the “d: effect on crop, Glycine max” value in the series on Glycine max is reported as 5 (Herbicidal ratio of 90% or more (almost completely withered)). Further, the “e: effect on crop, Triticum aestivum” value in the series on Triticum aestivum was 4 (Herbicidal ratio of 70% or more and less than 90%). In the series with Zea mays, the “c: effect on crop, Zea mays” value is reported as 5 (Herbicidal ratio of 90% or more (almost completely withered)). For the same compound, in series [3], the “b: effect on crop” value was 5 (Herbicidal ratio of 90% or more (almost completely withered)).

Turning to `Cc1cc(-c2nnc3c(C(=O)Nc4nnnn4C)ccc(C(F)(F)F)n23)no1` [2-017], the “C (Monochoria vaginalis) herbicidal ratio grade” value in the series on Monochoria vaginalis is 4 (Herbicidal ratio of 70% or more and less than 90%). In addition, the “B (Scirpus juncoides) herbicidal ratio grade” value with Scirpus juncoides is 4 (Herbicidal ratio of 70% or more and less than 90%). Also, in [1], the “b (effect on crop grade)” value is listed as 5 (Herbicidal ratio of 90% or more (almost completely withered)). Besides, in series [2], the “f: effect on crop” value is recorded as 5 (Herbicidal ratio of 90% or more (almost completely withered)). Further, the “g: effect on crop” value with Brassica campestris L. was 4 (Herbicidal ratio of 70% or more and less than 90%). The “d: effect on crop, Glycine max” value with Glycine max was 4 (Herbicidal ratio of 70% or more and less than 90%). Moreover, in the series on Triticum aestivum, the “e: effect on crop, Triticum aestivum” value is 3 (Herbicidal ratio of 40% or more and less than 70%). Also, the “c: effect on crop, Zea mays” value in the series on Zea mays was 1 (Herbicidal ratio of 5% or more and less than 20%). Moreover, in series [3], the “b: effect on crop” value is listed as 5 (Herbicidal ratio of 90% or more (almost completely withered)).

On to `Cc1nnc(NC(=O)c2ccc(C(F)(F)F)n3c(SCc4ccccc4)nnc23)o1` [1-113], for which the “C (Monochoria vaginalis) herbicidal ratio grade” value in the series on Monochoria vaginalis is recorded as 0 (Herbicidal ratio of 5% or less (almost no effect)). Also, the “B (Scirpus juncoides) herbicidal ratio grade” value in the series on Scirpus juncoides is 0 (Herbicidal ratio of 5% or less (almost no effect)). In addition, the “b (effect on crop grade)” value in series [1] is 0 (Herbicidal ratio of 5% or less (almost no effect)). Further, in [2] (setting [4]), the “f (Beta vulgaris ssp. vulgaris) effect on crop grade” value is 3 (Herbicidal ratio of 40% or more and less than 70%). Also, the “g (Brassica campestris L.) effect on crop grade” value in the series on Brassica campestris L. (setting [4]) was 0 (Herbicidal ratio of 5% or less (almost no effect)). For the same compound, in the series with Glycine max (setting [4]), the “d (Glycine max) effect on crop grade” value is on record as 0 (Herbicidal ratio of 5% or less (almost no effect)). Also, the “e (Triticum aestivum) effect on crop grade” value in the series with Triticum aestivum (setting [4]) is recorded as 0 (Herbicidal ratio of 5% or less (almost no effect)). The “c (Zea mays) effect on crop grade” value in the series with Zea mays (setting [4]) is 0 (Herbicidal ratio of 5% or less (almost no effect)). In addition, the “b (directly sowed Oryza sativa) effect on crop grade” value in series [3] (setting [4]) is given as 0 (Herbicidal ratio of 5% or less (almost no effect)).

Take `Cn1nnnc1NC(=O)c1ccc(C(F)(F)F)n2c(COc3ccccc3)nnc12` [2-020]: the “C (Monochoria vaginalis) herbicidal ratio grade” value in the series on Monochoria vaginalis was 0 (Herbicidal ratio of 5% or less (almost no effect)). Also, the “B (Scirpus juncoides) herbicidal ratio grade” value in the series with Scirpus juncoides is 2 (Herbicidal ratio of 20% or more and less than 40%). In addition, the “b (effect on crop grade)” value in series [1] is 4 (Herbicidal ratio of 70% or more and less than 90%). Besides, the “f: effect on crop” value in [2] is listed as 5 (Herbicidal ratio of 90% or more (almost completely withered)). In addition, in the series on Brassica campestris L., the “g: effect on crop” value was 3 (Herbicidal ratio of 40% or more and less than 70%). For the same compound, in the series on Glycine max, the “d: effect on crop, Glycine max” value was 3 (Herbicidal ratio of 40% or more and less than 70%). The “e: effect on crop, Triticum aestivum” value in the series on Triticum aestivum was 1 (Herbicidal ratio of 5% or more and less than 20%). Further, the “c: effect on crop, Zea mays” value in the series on Zea mays is given as 0 (Herbicidal ratio of 5% or less (almost no effect)). The “b: effect on crop” value in [3] was 2 (Herbicidal ratio of 20% or more and less than 40%).
